Data published in ChEMBL document CHEMBL1150970, “Starfish saponins. 55. Isolation, structure elucidation, and biological activity of the steroid oligoglycosides from an Antarctic starfish of the family Asteriidae” (J Nat Prod, 1998).

Experiment: Cytotoxicity against human NSCLC-L16 cells
Type: functional, cell-based

Structure (SMILES)	IC50 [µg/mL]
CC(C)[C@H](/C=C/[C@@H](C)[C@H]1C[C@@H](O)[C@@H]2[C@]1(C)CC[C@@H]1[C@@]3(C)CC[C@H](O[C@@H]4OC[C@@H](O)[C@H](O)[C@H]4O)C[C@@H]3[C@@H](O)[C@@H](O)[C@]12O)O[C@@H]1OC[C@@H](O)[C@H](OS(=O)(=O)[O-])[C@H]1O.[Na+] [ASTERIIDOSIDE I]	> 30
C=C(CC[C@](C)(O)[C@H]1CC[C@H]2[C@@H]3C[C@H](O[C@@H]4O[C@H](C)[C@@H](O)[C@H](O[C@@H]5OC[C@@H](O[C@@H]6O[C@H](C)[C@H](O)[C@H](O)[C@H]6O[C@@H]6OC[C@H](O)[C@H](O[C@@H]7O[C@H](CO)[C@H](O)[C@H](O)[C@H]7O)[C@H]6O)[C@H](O)[C@H]5O[C@@H]5O[C@H](C)[C@@H](O)[C@H](O)[C@H]5O)[C@H]4C)[C@H]4C[C@@H](OS(=O)(=O)[O-])CC[C@]4(C)C3=CC[C@@]21C)C(C)C.[Na+] [ASTERIIDOSIDE D]	11.4
C[C@@H](C/C=C/[C@@H](C)[C@H]1[C@@H](O)[C@@H](O)[C@@H]2[C@]1(C)CC[C@@H]1[C@@]3(C)CC[C@H](O[C@@H]4OC[C@@H](O)[C@H](O)[C@H]4O)C[C@@H]3[C@@H](O)C[C@]12O)CO[C@@H]1OC[C@@H](O)[C@H](O)[C@H]1O [ASTERIIDOSIDE F]	> 30
CC(C)[C@@H](/C=C/[C@@H](C)[C@H]1C[C@H](O)[C@@H]2[C@]1(C)CC[C@@H]1[C@@]3(C)CC[C@H](O[C@@H]4OC[C@@H](O)[C@H](O)[C@H]4O)C[C@@H]3[C@H](O)C[C@]12O)COS(=O)(=O)[O-].[Na+] [ASTERIIDOSIDE L]	> 30
CC(C)=CCC[C@](C)(O)[C@H]1CC[C@H]2[C@@H]3C[C@H](O[C@@H]4O[C@H](C)[C@@H](O)[C@H](O[C@@H]5OC[C@@H](O[C@@H]6O[C@H](C)[C@H](O)[C@H](O)[C@H]6O[C@@H]6OC[C@H](O)[C@H](O[C@@H]7O[C@H](CO)[C@H](O)[C@H](O)[C@H]7O)[C@H]6O)[C@H](O)[C@H]5O[C@@H]5O[C@H](C)[C@@H](O)[C@H](O)[C@H]5O)[C@H]4C)[C@H]4C[C@@H](OS(=O)(=O)[O-])CC[C@]4(C)C3=CC[C@@]21C.[Na+] [ASTERIIDOSIDE E]	18.1
CC(C)CC(=O)C[C@](C)(O)[C@H]1CC[C@H]2[C@@H]3C[C@H](O[C@@H]4O[C@H](C)[C@@H](O)[C@H](O[C@@H]5O[C@H](C)[C@@H](O[C@@H]6O[C@H](CO)[C@H](O)[C@H](O)[C@H]6O[C@@H]6O[C@H](C)[C@H](O)[C@H](O[C@@H]7O[C@H](CO)[C@H](O)[C@H](O)[C@H]7O)[C@H]6O)[C@H](O)[C@H]5O[C@@H]5O[C@H](C)[C@@H](O)[C@H](O)[C@H]5O)[C@H]4C)[C@H]4C[C@@H](OS(=O)(=O)[O-])CC[C@]4(C)C3=CC[C@@]21C.[Na+] [ASTERIIDOSIDE A]	> 30
